Experimental data as given in patent US20070259866A1, “Method of Adenovirus, HIV and HPV Prophylaxis” (priority 1999, published 2007).
Values joined by “and” are separate entries in the source; they are usually repeats but may differ in a detail not shown here. Equal values may be shown once.

Assays:
varicella-zoster virus = assay: Inhibition of varicella-zoster virus infection in vitro; format: cell-based
Excerpt: Compound 96 inhibited varicella-zoster virus infection >98% in vitro.

[1] = test system: NL-HX (T cell-tropic isolate) Virus; assay: Control infections: untreated NL-HX virus added to PBMC cultures containing the final dilution of the drug; format: cell-based, Human Immunodeficiency Virus (HIV); settings: for Control culture: # infected cells/area (~500 cells) / Control culture: Average # infected cells/area: untreated virus; for Control culture: # infected cells/area (~500 cells): single area counts
Procedure: (§1) After the 1 hr treatment period, the virus-drug solutions were diluted 1:1,000 with complete medium, and then mixed with an equal volume of Peripheral Blood Mononucleocyte (PBMC) cells, for a final dilution of virus and drug of 1:4,000.
(§2) The infected cultures were then incubated without any washing or other changes in media for 4 days (for the M-tropic NL-HX-ADA type) and 8 days (for the T-tropic NL-HX type). The cultures were then assayed for infection using standard fluorescent focus assays to quantitate infected cells.
(§3) Control infections were performed by adding untreated viruses at a p24 concentration of 1 ng/ml into cultures containing the final dilution of the drug. This controlled for any residual effect the diluted drug may have on the health of the PBMC culture and their ability to replicate virus.

[2] = test system: NL-HX-ADA (macrophage-tropic isolate) Virus; assay: Control infections: untreated NL-HX-ADA virus added to PBMC cultures containing the final dilution of the drug; format: cell-based, Human Immunodeficiency Virus (HIV); settings: for Control culture: # infected cells/area (~500 cells) / Control culture: Average # infected cells/area: untreated virus; for Control culture: # infected cells/area (~500 cells): single area counts
Procedure: as §1, §2, §3

[3] = test system: NL-HX-ADA (macrophage-tropic isolate) Virus; assay: Inactivation of HIV stock by 1 hr drug treatment, then PBMC infection, fluorescent focus assay (NL-HX-ADA); format: cell-based, Human Immunodeficiency Virus (HIV); settings: for Average # infected cells/area / # infected cells/area (~500 cells): 4 days; for # infected cells/area (~500 cells): single area counts
Procedure: In a study of the prophylactic effects of Compound 96 on Human Immunodeficiency Virus (HIV), virus stock solutions were inactivated by treatment with Compound 96. Stock solutions of viral types NL-HX-ADA having a p24 concentration of 4.1 μg/ml and NL-HX (P122) having a p24 concentration of 3.8 μg/ml were used for the study, along with a stock solution of Compound 96 having a concentration of 20 mg/ml in RPMI media.
Concentrated stock solution of viruses were treated for 1 hr with equal volume of medium containing the drug at the following concentrations:
as §1, §2

[4] = even at the highest concentration tested (5 μg/ml)
[5] = culture with final dilution of the 0.625 mg/ml (residual 0.3 μg/ml)
[6] = culture with final dilution of the 1.25 mg/ml (residual 0.6 μg/ml)
[7] = culture with final dilution of the 2.5 mg/ml column (residual 1.25 μg/ml)
[8] = culture with final dilution of the 5 mg/ml column (residual 2.5 μg/ml)
[9] = culture with final dilution of the 10 mg/ml column (residual 5 μg/ml)
[10] = final dilution of the 0.625 mg/ml column (residual 0.3 μg/ml)
[11] = final dilution of the 1.25 mg/ml column (residual 0.6 μg/ml)
[12] = final dilution of the 2.5 mg/ml column (residual 1.25 μg/ml)
[13] = final dilution of the 5 mg/ml column (residual 2.5 μg/ml)
[14] = final dilution of the 10 mg/ml column (residual 5 μg/ml)
[15] = virus treated 1 hr at 0.625 mg/ml
[16] = virus treated 1 hr at 1.25 mg/ml
[17] = virus treated 1 hr at 2.5 mg/ml

Compound: CC1=CC(C)=[N+]2CC[N+]3=C(C)C=C(C)[O][Co-4]23([n+]2cc[nH]c2C)([n+]2cc[nH]c2C)[O]1.[Br-] [Compound 96]
- inhibited varicella-zoster virus infection (varicella-zoster virus): > 98%
- toxicity or inhibition in control cultures receiving the diluted drugs [1, 4]: No toxicity or inhibition
- Control culture: # infected cells/area (~500 cells) [1, 5]: 11 cells/area and 10 cells/area
- Control culture: # infected cells/area (~500 cells) [1, 6]: 9 cells/area and 8 cells/area and 11 cells/area and 10 cells/area
- Control culture: # infected cells/area (~500 cells) [1, 7]: 10 cells/area and 11 cells/area
- Control culture: # infected cells/area (~500 cells) [1, 8]: 10 cells/area and 8 cells/area and 9 cells/area
- Control culture: # infected cells/area (~500 cells) [1, 9]: 10 cells/area and 9 cells/area and 11 cells/area
- Control culture: Average # infected cells/area [1, 10]: 10.3 cells/area
- Control culture: Average # infected cells/area [1, 11]: 9.5 cells/area
- Control culture: Average # infected cells/area [1, 12]: 10.3 cells/area
- Control culture: Average # infected cells/area [1, 13]: 8.8 cells/area
- Control culture: Average # infected cells/area [1, 14]: 9.8 cells/area
- toxicity or inhibition in control cultures receiving the diluted drugs [2, 4]: No toxicity or inhibition
- Control culture: # infected cells/area (~500 cells) [2, 5]: 17 cells/area and 16 cells/area and 18 cells/area
- Control culture: # infected cells/area (~500 cells) [2, 6]: 16 cells/area and 15 cells/area and 17 cells/area and 18 cells/area
- Control culture: # infected cells/area (~500 cells) [2, 7]: 17 cells/area and 18 cells/area and 15 cells/area and 16 cells/area
- Control culture: # infected cells/area (~500 cells) [2, 8]: 16 cells/area and 17 cells/area and 15 cells/area and 18 cells/area
- Control culture: # infected cells/area (~500 cells) [2, 9]: 15 cells/area and 16 cells/area and 17 cells/area
- Control culture: Average # infected cells/area [2, 10]: 16.50 cells/area
- Control culture: Average # infected cells/area [2, 11]: 16.38 cells/area
- Control culture: Average # infected cells/area [2, 12]: 16.50 cells/area
- Control culture: Average # infected cells/area [2, 13]: 16.25 cells/area
- Control culture: Average # infected cells/area [2, 14]: 16.00 cells/area
- reduction in infectivity ([3]; any drug-treated sample vs control infection (800-1200 infected cells per well)): ≥ 1,000 fold
- infected cells when the entire well was scanned ([3]; any of the drug-treated samples): No infected cells were detected
- inactivation of treated virus ([3]; even at the lowest concentration of drug tested (0.625 mg/ml), 1 hr treatment): completely inactivated
- Average # infected cells/area [3, 15]: 0 cells/area
- # infected cells/area (~500 cells) [3, 15]: 0 cells/area
- Average # infected cells/area [3, 16]: 0 cells/area
- # infected cells/area (~500 cells) [3, 16]: 0 cells/area
- Average # infected cells/area [3, 17]: 0 cells/area
- # infected cells/area (~500 cells) [3, 17]: 0 cells/area
- Average # infected cells/area ([3]; virus treated 1 hr at 5 mg/ml): 0 cells/area
- # infected cells/area (~500 cells) ([3]; virus treated 1 hr at 5 mg/ml): 0 cells/area
- Average # infected cells/area ([3]; virus treated 1 hr at 10 mg/ml): 0 cells/area
- # infected cells/area (~500 cells) ([3]; virus treated 1 hr at 10 mg/ml): 0 cells/area
